The values below come from patent EP2601952A1, “Novel pharmaceutically acceptable salts and cocrystals of 5-chloro-3-(4-methanesulfonylphenyl)-6'-methyl-[2,3']bipyridinyl and their therapeutic uses” (Zentiva, k.s., priority 2011, dated 2013).

The nature of data set [1]: DVS isotherm (hygroscopicity, hydrate formation). It is filed as physicochemical. To be noted: for hygroscopicity: DVS isotherm plot (Figure 4 / Figure 11).
Data set [2] is described as follows: Polymorphic stability: maturation / slurrying of the salts in various solvents. It is filed as physicochemical. As for the experimental part: Example 6: Method for assessing polymorphic stability of the succinic acid salt and Form A of the fumaric acid salt of 5-chloro-3-(4-methanesulfonylphenyl)-6'-methyl-[2,3']bipyridinyl.
Approximately 50-100 mg of the salts under investigation were suspended in 1ml of water, ethanol, 1-propanol, 2-propanol, 1-butanol, 2-butanol, tert-butanol, 1-pentanol, acetone, methyl ethyl ketone, isobutyl methyl ketone, ethyl formate, methyl acetate, ethyl acetate, propyl acetate, isopropyl acetate, butyl acetate, isobutyl acetate, tetrahydrofuran, 1,4-dioxane, toluene, acetonitrile and N-methyl pyrrolidine. […] The excess solvent was removed and the samples evaporated to dryness in a vacuum oven at 25 °C.

The conditions of data set [3]: anhydrous crystalline forms I, II, III, IV and V; Journal of Pharmaceutical Sciences, 95, 1, 56-69 (2006); cited from earlier work.

Regarding `Cc1ccc(-c2ncc(Cl)cc2-c2ccc(S(C)(=O)=O)cc2)cn1.O=C(O)/C=C/C(=O)O` [Form A of the fumaric acid salt, fumaric acid salt of 5-chloro-3-(4-methanesulfonylphenyl)-6'-methyl-[2,3']bipyridinyl], the hygroscopicity entry in data set [1] is listed as “relatively non-hygroscopic”. For the same molecule, in data set [2] (slurrying in an aliphatic alcohol or cyclic ether), the “polymorphic conversion on slurrying” value is on record as “Form B can be generated”.
Regarding `Cc1ccc(-c2ncc(Cl)cc2-c2ccc(S(C)(=O)=O)cc2)cn1` [etoricoxib, 5-Chloro-3-(4-methanesulfonylphenyl)-6'-methyl-[2,3']bipyridinyl], in data set [3], the “instability of anhydrous crystalline forms” value was “convert to hemihydrate”.
On to `Cc1ccc(-c2ncc(Cl)cc2-c2ccc(S(C)(=O)=O)cc2)cn1.O=C(O)CCC(=O)O` [succinic acid salt, succinic acid salt of 5-chloro-3-(4-methanesulfonylphenyl)-6'-methyl-[2,3']bipyridinyl], for which the hygroscopicity entry in data set [1] is given as “relatively non-hygroscopic”. Further, the “stability with respect to hydrate formation” value in data set [1] (DVS isotherm plot, Figure 4) is on record as “stable with respect to hydrate formation”. For the same molecule, the “polymorphic changes when maturated in various solvents” value in data set [2] (Example 6: suspended in 1 ml of solvent, agitated at 25°C for 35 days) is “lack of observed polymorphic changes”.
